The source of these data is patent US12122750B2, “AT2R antagonists and uses thereof” (Eli Lilly and Company, priority 2022, dated 2024).

For orientation: pKi means the Ki on a negative log10 scale, so that one unit is a factor of ten.

In data set [1] the target is recombinant human angiotensin-II receptor subtype 2 (hAT2R) (Homo sapiens (Human), UniProt P50052). The data set can be described thus: Competitive radioligand binding assay (SPA), hAT2R HEK293 membranes. The conditions noted are these: [125I]-Tyr4-Angiotensin-II, read-out: AT2R Ki. In short, it runs like this: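 SPA competition binding on membranes from HEK293 cells stably transfected with hAT2R (0.25 μg/well, with 0.1 mg/well PVT-WGA beads) in 50 mM Tris-HCl pH 7.5, 150 mM NaCl, 0.1% fatty-acid-free BSA. Ten-point four-fold dilution curves ran from 50 μM top final concentration. Bound radioactivity was counted (CPM) after 10 h at room temperature.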

A short description of data set [2]: Plasma concentration of test compound in the receptor occupancy study. It is filed as in vivo, Sprague Dawley rats. Conditions: rat. As for the experimental part:
Twenty male Sprague Dawley rats (140-150 gms, Envigo) were maintained under controlled laboratory conditions on a 12 hr light cycle with ad lib access to food and water. On the morning of the experiment, rats were orally dosed with vehicle (1% (w/v) hydroxyethylcellulose, 0.25% (w/v) polysorbate 80, 0.05% (v/v) antifoam 1510-US in purified water) or appropriate doses of test compound (5 mL/kg, n=4 rats/group) using the same vehicle. Following a pre-determined survival time, plasma and adrenals were collected and frozen at −80° C. until analyzed. Frozen 20 μm sections of an adrenal from each animal were collected onto gelatin-coated slides and stored at −80° C. Autoradiography to detect AT2R occupancy (RO) was conducted under cold conditions using methods modified from F. M. J. Heemskerk, et al, Brain Research 677 (1995) 29-38. Total binding was defined by 0.3 nM ^125I-CGP42112 (selective AT2R agonist, Perkin Elmer, Inc) with the addition of 10 μM unlabeled AngII used to define non-specific binding. Following exposure to a phosphoimager plate (BAS TR2025, GE Healthcare), the bound radioactivity is calculated with use of MCID software (Imaging Research, Inc) and calibrated ^125I standards (American Radiolabeled Chemicals, Inc). The specific ligand binding for each animal is calculated by subtracting the non-specific binding from the total bound.

pKi: −log10 of the molar value.

Chain of recombinant human angiotensin-II receptor subtype 2 (hAT2R) (P50052 whole entry): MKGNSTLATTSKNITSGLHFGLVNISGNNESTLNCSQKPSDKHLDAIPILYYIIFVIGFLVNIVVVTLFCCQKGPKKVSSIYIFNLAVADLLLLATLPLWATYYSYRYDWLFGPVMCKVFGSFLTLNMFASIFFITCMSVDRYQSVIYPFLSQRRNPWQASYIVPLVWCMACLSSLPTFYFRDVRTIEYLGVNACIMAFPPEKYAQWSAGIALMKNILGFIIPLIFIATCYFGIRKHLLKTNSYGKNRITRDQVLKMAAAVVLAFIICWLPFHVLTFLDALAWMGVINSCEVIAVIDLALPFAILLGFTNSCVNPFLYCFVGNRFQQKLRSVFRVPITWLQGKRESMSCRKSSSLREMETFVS

Regarding `CN(C(=O)N1CCC(CC(=O)N(c2ccccc2)C(C2CC2)C2CC2)(C(=O)O)CC1)c1ccc(F)cc1` [Example 18, 4-[2-[N-(dicyclopropylmethyl)anilino]-2-oxo-ethyl]-1-[(4-fluorophenyl)-methyl-carbamoyl]piperidine-4-carboxylic acid], in data set [1], the pKi was 8.02. Further, the “[plasma, free, nM]” value in data set [2] (oral dose 0.01 mg/kg) was 0.0298 nM; in data set [2] (oral dose 0.03 mg/kg), 0.224 nM; in data set [2] (oral dose 0.1 mg/kg), 0.476 nM; in data set [2] (oral dose 1 mg/kg) it was 2.57 nM.

`O=C(N1CCC(CC(=O)N(c2ccccc2)c2ccccc2)(C(=O)O)CC1)N1CCc2ccccc21` [Example 3, 1-(indoline-1-carbonyl)-4-[2-oxo-2-(N-phenylanilino)ethyl]piperidine-4-carboxylic acid]: in data set [1], the negative-log Ki (pKi) was 8.27. The “[plasma, free, nM]” value in data set [2] (oral dose 0.3 mg/kg) worked out at 0.482 nM; in data set [2] (oral dose 1 mg/kg), 1.74 nM; in data set [2] (oral dose 3 mg/kg) it was 5.99 nM; in data set [2] (oral dose 10 mg/kg), 15.8 nM.
